# Experiment: Saturation concentration of CBD in adhesive matrix (turbidity / flux plateau)
# Assay type: physicochemical
smiles,measurement,setting,value
"C=C(C)[C@@H]1CCC(C)=C[C@H]1c1c(O)cc(CCCCC)cc1O [CBD, cannabidiol]",Saturation concentration of CBD in acrylate adhesive Durotak 87-2287,Durotak 87-2287 adhesive matrix,30%
same,Saturation concentration of CBD in PIB adhesive,un-tackified PIB adhesive matrix,12%

# Reference: patent US20210228497A1, “New Medical Devices, Delivery Vehicles and Manufacturing Thereof” (Remy Biosciences, Inc., priority 2018, published 2021)
